Measured values: ChEMBL document CHEMBL1201862, “PubChem BioAssay data set” (2004)
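These data come from cells grown in 96-well plates and exposed to compound for 48 hours at five concentrations. GI50 marks 50% less growth.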 The source made the active and inactive calls. Cut-off read from the data, not from the text of the source: active = GI50 up to about 1.1 µM and inactive = higher.

Experiments:
Assay in all cases: growth of human tumour cells (NCI), 48 h
DU-145 = system: DU-145
MOLT-4 = system: MOLT-4
EKVX = system: EKVX
COLO 205 = system: COLO 205
OVCAR-3 = system: OVCAR-3
PC-3 = system: PC-3
RXF 393 = system: RXF 393
MDA-MB-435 = system: MDA-MB-435
NCI-H23 = system: NCI-H23
SK-MEL-28 = system: SK-MEL-28
OVCAR-4 = system: OVCAR-4
SF-295 = system: SF-295
UACC-62 = system: UACC-62
LOX IMVI = system: LOX IMVI
CCRF-CEM = system: CCRF-CEM
MDA-MB-231 = system: MDA-MB-231
T47D = system: T47D
HCT-15 = system: HCT-15
BT-549 = system: BT-549
Hs-578T = system: Hs-578T

| SMILES | GI50 (DU-145) | GI50 (MOLT-4) | GI50 (EKVX) | GI50 (COLO 205) | GI50 (OVCAR-3) | GI50 (PC-3) | GI50 (RXF 393) | GI50 (MDA-MB-435) | GI50 (NCI-H23) | GI50 (SK-MEL-28) | GI50 (OVCAR-4) | GI50 (SF-295) | GI50 (UACC-62) | GI50 (LOX IMVI) | GI50 (CCRF-CEM) | GI50 (MDA-MB-231) | GI50 (T47D) | GI50 (HCT-15) [µM] | GI50 (BT-549) | GI50 (Hs-578T) |
| --- | --- | --- | --- | --- | --- | --- | --- | --- | --- | --- | --- | --- | --- | --- | --- | --- | --- | --- | --- | --- |
| O=C1c2ccccc2C(=O)N1CCCSc1ccccc1 | > 100 µM (inactive) | 31.8 µM (inactive) | 57.1 µM (inactive) | 66.1 µM (inactive) | 28.8 µM (inactive) | 92 µM (inactive) | 63.7 µM (inactive) | > 100 µM (inactive) | 86.7 µM (inactive) | > 100 µM (inactive) | 71.9 µM (inactive) | 22.6 µM (inactive) | 71.6 µM (inactive) | > 100 µM (inactive) | 38.5 µM (inactive) | > 100 µM (inactive) | 31.3 µM (inactive) | 92.7 | > 100 µM (inactive) | > 100 µM (inactive) |
| Cc1ccc(/N=N/NCCCCN/N=N/c2ccc(C)cc2)cc1 | 32 µM (inactive) | 14.2 µM (inactive) | > 100 µM (inactive) | 35.4 µM (inactive) | > 100 µM (inactive) | 4.22 µM (inactive) | > 100 µM (inactive) | 11.8 µM (inactive) | 9.25 µM (inactive) | > 100 µM (inactive) | > 100 µM (inactive) | 8.22 µM (inactive) | > 100 µM (inactive) | 1.17 µM (inactive) | 1 µM (active) | > 100 µM (inactive) | 11.5 µM (inactive) | 4.93 | > 100 µM (inactive) | > 100 µM (inactive) |
| CN(C)c1ccc(/C(F)=C(F)/C(F)=C(F)/C(F)=C(\F)c2ccc(Br)cc2)cc1 | 19.4 µM (inactive) | 25.6 µM (inactive) | 22.9 µM (inactive) | 23.4 µM (inactive) | 9.38 µM (inactive) | 15.2 µM (inactive) | 9.2 µM (inactive) | 3.1 µM (inactive) | 14.8 µM (inactive) | > 100 µM (inactive) | 23.9 µM (inactive) | 6.98 µM (inactive) | 22.9 µM (inactive) | 19.8 µM (inactive) | 29.4 µM (inactive) | 39.5 µM (inactive) | 34.7 µM (inactive) | 13.3 | 31.8 µM (inactive) | 17.2 µM (inactive) |
| N[C@@H]1c2c(Br)sc(Br)c2C(=O)[C@H]1Br | > 60.3 µM (inactive) | 4.69 µM (inactive) | 34.4 µM (inactive) | 1.88 µM (inactive) | 30.6 µM (inactive) | 37.2 µM (inactive) | 22.1 µM (inactive) | 23 µM (inactive) | 24.8 µM (inactive) | 28.5 µM (inactive) | 27.2 µM (inactive) | > 70.6 µM (inactive) | 20.5 µM (inactive) | 15.7 µM (inactive) | 2.02 µM (inactive) | 23.6 µM (inactive) | 30.2 µM (inactive) | 25.1 | 19.1 µM (inactive) | 54.6 µM (inactive) |
| CCN(CC)/C(Cl)=C(Cl)\C(=C1\Nc2ccc(OC)cc21)[N+](=O)[O-] | 37.8 µM (inactive) | 23.1 µM (inactive) | 30.1 µM (inactive) | 43.4 µM (inactive) | 13.7 µM (inactive) | 31.6 µM (inactive) | 15.7 µM (inactive) | 37.2 µM (inactive) | 56.6 µM (inactive) | 55.7 µM (inactive) | 30.8 µM (inactive) | 45.8 µM (inactive) | 88.5 µM (inactive) | 38.7 µM (inactive) | 20.1 µM (inactive) | 45.5 µM (inactive) | 24.6 µM (inactive) | 52.7 | 37.1 µM (inactive) | 78.7 µM (inactive) |
| Cc1cc(Nc2ccc(/N=N/c3ccc(O)c4ncccc34)cc2)nc(C)n1 | 18.2 µM (inactive) | 3.93 µM (inactive) | 34.8 µM (inactive) | 20.8 µM (inactive) | 7.76 µM (inactive) | 14.4 µM (inactive) | 12.7 µM (inactive) | 9.29 µM (inactive) | 7.24 µM (inactive) | 11.2 µM (inactive) | 18 µM (inactive) | 18.6 µM (inactive) | 6.38 µM (inactive) | 6.52 µM (inactive) | 2.75 µM (inactive) | 24.9 µM (inactive) | 6.01 µM (inactive) | 4.37 | 16.4 µM (inactive) | 7.03 µM (inactive) |
| CCCCn1c(C)c2c(c1C)C(=O)N(CC(O)CN1CCc3ccccc3C1)C2=O (stereo not given) | > 100 µM (inactive) | 38.3 µM (inactive) | 12.3 µM (inactive) | 37.8 µM (inactive) | 67.8 µM (inactive) | 56.6 µM (inactive) | 67.6 µM (inactive) | 60.1 µM (inactive) | 56.5 µM (inactive) | > 100 µM (inactive) | 56.9 µM (inactive) | 42.4 µM (inactive) | 60 µM (inactive) | 49.7 µM (inactive) | 69.8 µM (inactive) | > 100 µM (inactive) | 35.6 µM (inactive) | > 100 | > 100 µM (inactive) | > 100 µM (inactive) |
| COc1ccc(/C=C(/C(=O)c2ccc(Cl)cc2)N2C=CC=CC2=C(C#N)C#N)cc1OC | 13.7 µM (inactive) | 0.685 µM (active) | 2.75 µM (inactive) | 1.58 µM (inactive) | 3.72 µM (inactive) | 2.74 µM (inactive) | 2.03 µM (inactive) | 3.89 µM (inactive) | 11.5 µM (inactive) | 3.4 µM (inactive) | 6.58 µM (inactive) | 28.5 µM (inactive) | 14.9 µM (inactive) | 3.39 µM (inactive) | 0.115 µM (active) | 6.24 µM (inactive) | 4.06 µM (inactive) | 2.17 | 7.85 µM (inactive) | 1.66 µM (inactive) |
| COC(=O)C1C2OC(C)(C)OC2CN1S(=O)(=O)c1ccc(C)cc1 (stereo not given) | > 100 µM (inactive) | > 100 µM (inactive) | 8.04 µM (inactive) | > 100 µM (inactive) | > 100 µM (inactive) | > 100 µM (inactive) | > 100 µM (inactive) | > 100 µM (inactive) | > 100 µM (inactive) | > 100 µM (inactive) | > 100 µM (inactive) | > 100 µM (inactive) | > 100 µM (inactive) | > 100 µM (inactive) | > 100 µM (inactive) | > 100 µM (inactive) | > 100 µM (inactive) | > 100 | > 100 µM (inactive) | > 100 µM (inactive) |
| CC1ON2CCCC2[C@H]1C(=O)N1C2CC3CCC2(CS1(=O)=O)C3(C)C (stereo not given in full) | > 100 µM (inactive) | > 100 µM (inactive) | > 100 µM (inactive) | > 100 µM (inactive) | > 100 µM (inactive) | > 100 µM (inactive) | > 100 µM (inactive) | > 100 µM (inactive) | > 100 µM (inactive) | > 100 µM (inactive) | > 100 µM (inactive) | > 100 µM (inactive) | > 100 µM (inactive) | > 100 µM (inactive) | > 100 µM (inactive) | > 100 µM (inactive) | > 100 µM (inactive) | > 100 | > 100 µM (inactive) | > 100 µM (inactive) |
